Laboratory results taken from ChEMBL document CHEMBL3272202, “Synthesis and pharmacological activity of some N-alkyl-substituted 9alpha-ethyl-2'-hydroxy-5-methyl-6,7-benzomorphans” (J Med Chem, 1977).
Active and inactive are the calls of the source. No cut-off for these calls is given here.

Assays:
[1] = tested on: Mus musculus; assay: Narcotic analgesic activity in sc dosed mouse by hot-plate test; format: functional
[2] = tested on: Rattus norvegicus; assay: Narcotic antagonist activity in rat at 30 mg/kg, sc by tail-flick test relative to control; format: functional; design: scale not given: the % may be the effect or the level left
[3] = tested on: Rattus norvegicus; assay: Narcotic analgesic activity in sc dosed rat by tail-flick test; format: functional
[4] = tested on: Mus musculus; assay: Narcotic analgesic activity in sc dosed mouse assessed as suppression of phenylquinone-induced writhing; format: functional
[5] = tested on: Rattus norvegicus; assay: Narcotic antagonist activity in sc dosed rat by tail-flick test; format: functional
[6] = tested on: Mus musculus; assay: Narcotic analgesic activity in sc dosed mouse by Nilsen test; format: functional
[7] = tested on: Rattus norvegicus; assay: Narcotic analgesic activity in rat at 30 mg/kg, sc by tail-flick test relative to control; format: functional
[8] = tested on: Mus musculus; assay: Toxicity in mouse at 50 mg/kg, sc; format: organism-based; design: dose 50 mg/kg, route subcutaneous; details: in vivo
[9] = tested on: Mus musculus; assay: Narcotic analgesic activity in mouse at 20 mg/kg, sc by Nilsen test; format: functional, organism-based; design: dose 20 mg/kg
[10] = tested on: Mus musculus; assay: Narcotic analgesic activity in mouse at 50 mg/kg by hot-plate test; format: functional, organism-based; design: dose 50 mg/kg
[11] = tested on: Rhesus monkey; assay: Toxicity in morphine-dependent monkey assessed as morphine substitution measured during single dose suppression test; format: organism-based, Macaca mulatta; details: in vivo
[12] = tested on: Rhesus monkey; assay: Toxicity in morphine-dependent monkey assessed as morphine substitution measured during precipitated withdrawl test; format: organism-based, Macaca mulatta; details: in vivo
[13] = tested on: Rattus norvegicus; assay: Narcotic antagonist activity in rat at 1 to 10 mg/kg, sc by tail-flick test; format: functional, organism-based
[14] = tested on: Rattus norvegicus; assay: Narcotic antagonist activity in rat at 10 mg/kg, sc by tail-flick test; format: functional
[15] = tested on: Rhesus monkey; assay: Toxicity in morphine-dependent monkey assessed as precipitation of abstinence signs; format: organism-based, Macaca mulatta; details: in vivo
[16] = tested on: Rhesus monkey; assay: Toxicity in morphine-dependent monkey assessed as depression of central nervous system in presence of naloxone; format: organism-based, Macaca mulatta; details: in vivo
[17] = tested on: Rhesus monkey; assay: Toxicity in morphine-dependent monkey assessed as depression of central nervous system in presence of nalorphine; format: organism-based, Macaca mulatta; details: in vivo
[18] = tested on: Mus musculus; assay: Narcotic analgesic activity in mouse assessed as suppression of phenylquinone-induced writhing at 30 mg/kg, sc relative to control; format: functional; details: route subcutaneous
[19] = tested on: Rhesus monkey; assay: Narcotic antagonist activity in morphine-dependent monkey by single dose suppression test; format: functional, organism-based; details: Macaca mulatta
[20] = tested on: Rhesus monkey; assay: Narcotic antagonist activity in morphine-dependent monkey by precipitated withdrawl test; format: functional, organism-based; details: Macaca mulatta
[21] = tested on: Mus musculus; assay: Narcotic analgesic activity in mouse assessed as suppression of phenylquinone-induced writhing at 10 mg/kg, sc relative to control; format: functional; details: route subcutaneous
[22] = tested on: Mus musculus; assay: Toxicity in mouse assessed as hyperactivity at 3 to 10 mg/kg, sc; format: organism-based; design: dose 3-10 mg/kg, route subcutaneous; details: in vivo
[23] = tested on: Mus musculus; assay: Toxicity in mouse assessed as ataxia at 3 to 10 mg/kg, sc; format: organism-based; design: dose 3-10 mg/kg, route subcutaneous; details: in vivo
[24] = tested on: Mus musculus; assay: Narcotic analgesic activity in mouse at 10 to 40 mg/kg, sc by Nilsen test; format: functional, organism-based
[25] = tested on: Rhesus monkey; assay: Toxicity in morphine-dependent monkey assessed as morphine substitution at 2.5 to 20 mg/kg measured during single dose suppression test; format: organism-based, Macaca mulatta; design: dose 2.5-20 mg/kg; details: in vivo
[26] = tested on: Rhesus monkey; assay: Toxicity in morphine-dependent monkey assessed as morphine substitution at 2.5 to 20 mg/kg measured during precipitated withdrawl test; format: organism-based, Macaca mulatta; design: dose 2.5-20 mg/kg; details: in vivo
[27] = tested on: Mus musculus; assay: Narcotic analgesic activity in mouse at 5 to 10 mg/kg, sc by Nilsen test; format: functional, organism-based
[28] = tested on: Mus musculus; assay: Toxicity in mouse at 5 to 10 mg/kg, sc; format: organism-based; design: dose 5-10 mg/kg, route subcutaneous; details: in vivo
[29] = tested on: Mus musculus; assay: Narcotic analgesic activity in mouse at 50 mg/kg, sc by Nilsen test; format: functional, organism-based; design: dose 50 mg/kg
[30] = tested on: Rhesus monkey; assay: Toxicity in morphine-dependent monkey assessed as depression of central nervous system; format: organism-based, Macaca mulatta; details: in vivo
[31] = tested on: Rhesus monkey; assay: Toxicity in morphine-dependent monkey assessed as motor incoordination; format: organism-based, Macaca mulatta; details: in vivo
[32] = tested on: Rhesus monkey; assay: Toxicity in morphine-dependent monkey assessed as convulsion; format: organism-based, Macaca mulatta; details: in vivo
[33] = tested on: Mus musculus; assay: Narcotic analgesic activity in mouse at 100 mg/kg, sc by hot-plate test; format: functional, organism-based; design: dose 100 mg/kg
[34] = tested on: Mus musculus; assay: Narcotic analgesic activity in mouse at 20 to 50 mg/kg, sc by hot-plate test; format: functional, organism-based

CCCCCN1CC[C@]2(C)c3cc(O)ccc3C[C@@H]1[C@@H]2CC (racemic)
ED50 [1]: 4.2 mg/kg | Activity ([2]; route subcutaneous): 39% | ED50 [3]: 28.1 mg/kg | ED50 [4]: 1.8 mg/kg | AD50 [5]: inactive

CCCCCCCN1CC[C@]2(C)c3cc(O)ccc3C[C@@H]1[C@@H]2CC (racemic)
ED50 [1]: 9.9 mg/kg | ED50 [3]: 14 mg/kg | ED50 [4]: 7.3 mg/kg | AD50 [5]: inactive

CN1CC[C@]23c4c5ccc(O)c4O[C@H]2[C@@H](O)C=C[C@H]3[C@H]1C5 [MORPHINE]
ED50 [6]: 0.8 mg/kg | ED50 [1]: 1.2 mg/kg | ED50 [3]: 5.34 mg/kg | AD50 [5]: inactive

CCCCN1CC[C@]2(C)c3cc(O)ccc3C[C@@H]1[C@@H]2CC (racemic)
inhibition [7]: inactive | ED50 [1]: inactive | ED50 [4]: 13 mg/kg | AD50 [5]: 2.38 mg/kg | Activity [8]: Toxic | Activity [9]: inactive | Activity [10]: inactive

CC[C@H]1[C@H]2Cc3ccc(O)cc3[C@@]1(C)CCN2C (racemic)
Activity [11]: Toxic | Activity [12]: Toxic | ED50 [1]: 1.3 mg/kg | Activity [13]: inactive | ED50 [3]: 6.4 mg/kg | ED50 [4]: 0.2 mg/kg

CC[C@H]1[C@H]2Cc3ccc(O)cc3[C@@]1(C)CCN2CC1CCC1 (racemic)
ED50 [6]: 2.9 mg/kg | Activity [14]: inactive | Activity [15]: Toxic | Activity [16]: Non-toxic | Activity [17]: Toxic | ED50 [1]: 1.8 mg/kg | ED50 [4]: 0.31 mg/kg | AD50 [5]: 0.477 mg/kg

CC[C@H]1[C@H]2Cc3ccc(O)cc3[C@@]1(C)CCN2 (racemic)
inhibition in vivo at 30 mg/kg ([7]; route subcutaneous): 37% | inhibition in vivo at 30 mg/kg [18]: 45% | ED50 [1]: inactive | Activity [2]: inactive

C=CCN1CC[C@]23c4c5ccc(O)c4O[C@H]2C(=O)CC[C@@]3(O)[C@H]1C5
Activity [19]: Active | Activity [20]: Active

CCCN1CC[C@]2(C)c3cc(O)ccc3C[C@@H]1[C@@H]2CC (racemic)
ED50 [1]: inactive | ED50 [3]: inactive | AD50 [5]: 0.7 mg/kg | Activity [21]: 55% | Activity [22]: Toxic | Activity [23]: Toxic | Activity [24]: inactive

CC[C@H]1[C@H]2Cc3ccc(O)cc3[C@@]1(C)CCN2CC (racemic)
inhibition in vivo at 30 mg/kg [18]: 27% | ED50 [1]: 21.3 mg/kg | ED50 [3]: inactive | AD50 [5]: 5.5 mg/kg

CCCCCCN1CC[C@]2(C)c3cc(O)ccc3C[C@@H]1[C@@H]2CC (racemic)
Activity [25]: Non-toxic | Activity [26]: Non-toxic | ED50 [1]: 6.2 mg/kg | Activity [2]: inactive | ED50 [3]: 18.7 mg/kg | ED50 [4]: 5.7 mg/kg

C=CCN1CC[C@]23c4c5ccc(O)c4O[C@H]2[C@@H](O)C=C[C@H]3[C@H]1C5 [NALORPHINE]
ED50 [6]: 4.8 mg/kg | Activity [19]: Active | Activity [20]: Active | ED50 [1]: 36.3 mg/kg | Activity [13]: inactive

CC[C@H]1[C@H]2Cc3ccc(O)cc3[C@@]1(C)CCN2CC=C(C)C (racemic)
ED50 [6]: 26.8 mg/kg | ED50 [1]: 8.9 mg/kg | ED50 [3]: inactive | AD50 [5]: 3.1 mg/kg | Activity [21]: 36%

CCCCCCCCN1CC[C@]2(C)c3cc(O)ccc3C[C@@H]1[C@@H]2CC (racemic)
ED50 [1]: inactive | ED50 [3]: inactive | ED50 [4]: 15.1 mg/kg | AD50 [5]: inactive

CC[C@H]1[C@H]2Cc3ccc(O)cc3[C@@]1(C)CCN2CC1CC1 (racemic)
Activity ([14]; route subcutaneous): 12% | Activity [27]: inactive | Activity [28]: Toxic | Activity [19]: Active | Activity [20]: Active | ED50 [1]: inactive | ED50 [4]: 2.1 mg/kg | AD50 [5]: 0.19 mg/kg

C=CCCCN1CC[C@]2(C)c3cc(O)ccc3C[C@@H]1[C@@H]2CC (racemic)
Activity [29]: inactive | Activity [30]: Toxic | Activity [31]: Toxic | Activity [32]: Toxic | Activity [15]: Toxic | inhibition [7]: inactive | ED50 [4]: 2.56 mg/kg | AD50 [5]: 1.18 mg/kg | Activity [33]: inactive

C=CCN1CC[C@]2(C)c3cc(O)ccc3C[C@@H]1[C@@H]2CC (racemic)
Activity [19]: Active | Activity [20]: Active | inhibition [7]: inactive | ED50 [4]: 15.7 mg/kg | AD50 [5]: 0.6 mg/kg | Activity [34]: inactive
